# In PubChem BioAssay AID463204 (Broad Institute, 2010):
# Calls of active or inactive are those of the source.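 The calls were made as follows: active = AC50 no more than ten times the top concentration tested, that is within one log above it; inconclusive = flat curve fit with activity between 30% and 70%, or invalid poor fit; inactive = AC50 beyond ten times the top tested dose.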
# Tested on: S. cerevisiae Mot1-301 ts growth rescue, BacTiter-Glo ATP luminescence
# Assay: restored Mot1-301 yeast growth at 38.5C – whole organism, S. cerevisiae, Mot1-301 ts mutant, luminescence, dose retest, SUMOylation pathway inhibitor project, confirmation (AID 463204);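 also: growth at restrictive 38.5 degrees C of Mot1-301 OY566 strain; actives raise luminescence by restoring growth of the ts mutant at high temperature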
row,Structure (SMILES),AC50
1,CCOC(C(=O)OCCCN(CC)CC)(c1ccccc1)c1ccccc1,> 42 µM (inactive)
2,C=CC(=O)NC1CC2CCC1(C)C2(C)C (centres undefined),> 42 µM (inactive)
3,CC(C)(C)C(=O)NC1CCN(CC(=O)Nc2ccc3c(c2)OCO3)CC1,> 42 µM (inactive)
4,CCCCOc1ccc(C(=O)Nc2ccc(N3CCN(C)CC3)cc2)cc1,> 42 µM (inactive)
5,CC(C)(CNC(=O)c1cccs1)CNC(=O)c1cccs1,> 42 µM (inactive)
6,CN=C(Nc1cccnc1)c1ccccc1,> 42 µM (inactive)
7,O=C(O)CCSc1ccc([N+](=O)[O-])cc1[N+](=O)[O-],8.27 µM
8,Cc1ccc(C(C(=O)Nc2ccc3c(c2)OCO3)N(C)C(=O)Cc2c[nH]c3ccccc23)cc1 (centres undefined),> 42 µM (inactive)
9,CCOC(=O)c1c(C)[nH]c2c1cc(O)c1ccccc12,> 42 µM (inactive)
10,CCCc1nc2c(nnn2Cc2ccccc2F)c(=O)[nH]1,> 42 µM (inactive)
11,COc1ccc(C2=NN(C(=S)Nc3ccccc3)C(c3ccccc3)C2)cc1 (centres undefined),> 42 µM (inactive)
12,NNC(=O)c1[nH]c2ccccc2c1-c1ccccc1,> 42 µM (inactive)
13,Nc1ccc(C2(c3ccc(N)cc3)OC(=O)c3ccccc32)cc1,> 42 µM (inactive)
14,O=C(Nc1ccncc1Cl)c1ccncc1,> 42 µM (inactive)
15,CCN(CC)C(=O)CSC(Nc1cccc(F)c1)=C(C#N)C#N,> 42 µM (inactive)
16,COc1ccccc1N1CCN(C(=O)c2ccc(-c3ccccc3)cc2)CC1,> 42 µM (inactive)
17,O=S(=O)(NCc1ccco1)c1ccc2ccccc2c1,> 42 µM (inactive)
18,COc1ccccc1NC(=O)CSc1nc(O)c(Cc2ccccc2)c(=O)[nH]1,> 42 µM (inactive)
19,Nc1ncnc2nc(SCC(=O)N3CCN(c4ccccc4)CC3)[nH]c12,> 42 µM (inactive)
20,COC(=O)c1cc2occc2n1Cc1nc(-c2ccccc2C)oc1C,> 42 µM (inactive)
21,CCOC(=O)N1CCN(C(=O)c2ccc3ccccc3c2)CC1,> 42 µM (inactive)
22,O=C(NCc1ccco1)c1ccc(Br)c(S(=O)(=O)N2CCCCC2)c1,> 42 µM (inactive)
23,Cc1ccc(Cn2c(NCCc3ccccc3)nc3c2c(=O)n(C)c(=O)n3C)cc1,> 42 µM (inactive)
24,O=C1c2ccccc2NC(c2ccccc2O)N1O (centres undefined),> 42 µM (inactive)
25,O=C1OCc2cc(NS(=O)(=O)c3cccs3)ccc21,> 42 µM (inactive)

row,Structure (SMILES),AC50
1,N#Cc1c(-c2ccco2)cc(-c2cccnc2)nc1N,> 42 µM (inactive)
2,CCN(CC)CCCN1C(=O)C(=O)/C(=C(/O)c2ccccc2)C1c1cc(OC)ccc1OC (centres undefined),> 42 µM (inactive)
3,COc1ccc(CCNC(=O)C/C(C)=N/NC(=O)COc2ccc(C)cc2Br)cc1OC,> 42 µM (inactive)
4,Cc1ccc2c(c1)C(=O)N1[C@H]3c4ccccc4OC[C@@H]3[C@H](c3ccccc3)[C@]1(C)C(=O)N2,0.86 µM
5,COc1ccc(C(=O)COc2ccc3ccc(=O)oc3c2)cc1,> 42 µM (inactive)
6,CCS(=O)(=O)N1CCC(C(=O)NCCCN2CCN(c3ccccc3F)CC2)CC1,> 42 µM (inactive)
7,O=C(c1ccccc1F)N1CCCc2ccccc21,> 42 µM (inactive)
8,Cc1ccc(N(C(C)C(=O)O)S(=O)(=O)c2c(C)n[nH]c2C)cc1 (centres undefined),> 42 µM (inactive)
9,Cc1c(OC(C)C(=O)N2C[C@H]3C[C@@H](C2)c2cccc(=O)n2C3)ccc2c3c(c(=O)oc12)CCCC3 (some centres undefined),> 42 µM (inactive)
10,COc1ccc2c(c1)[C@H]1[C@H](CO2)[C@H](c2ccccc2)[C@]2(C)C(=O)Nc3ccc(Br)cc3C(=O)N12,1.17 µM
11,CC1CCN(CCCCOc2ccc(Cl)cc2)CC1,> 42 µM (inactive)
12,COc1c2ccoc2nc2c(OC)c(OC[C@@H](O)C(C)(C)O)ccc12,> 42 µM (inactive)
13,CCCN1C(=O)c2ccccc2NC1c1ccc(C)cc1 (centres undefined),> 42 µM (inactive)
14,O=C(NCCCN1CCN(c2ccccc2F)CC1)Nc1ccccc1[N+](=O)[O-],> 42 µM (inactive)
15,O=C(CS(=O)c1ccc(C(F)(F)F)cc1[N+](=O)[O-])Oc1ccc(Cl)cc1 (centres undefined),1.47 µM
16,CN(C)c1ccnc2sc3c(NCC(O)CO)ncnc3c12 (centres undefined),> 42 µM (inactive)
17,CCCCn1c(N)c(N(CC(C)C)C(=O)CSCC(=O)Nc2cccc(C)c2)c(=O)[nH]c1=O,> 42 µM (inactive)
18,CC(=O)c1ccc(C(=O)N2CCCC(N3CCN(c4ccc(F)cc4)CC3)C2)s1 (centres undefined),> 42 µM (inactive)
19,COc1cccc(CNC(=O)CCCn2nc(C)c3c(C)n(-c4ccccc4)nc3c2=O)c1,> 42 µM (inactive)
20,CCN(CC)CCNc1ncnc2c1[nH]c1ccc(OC)cc12,> 42 µM (inactive)
21,COc1ccc(CN(C)C(=O)c2sccc2-c2ccccc2)c(OC)c1,> 42 µM (inactive)
22,COc1cc(C(c2c(C)[nH][nH]c2=O)c2c(C)[nH][nH]c2=O)cc(OC)c1OC,> 42 µM (inactive)
23,CCOC(=O)NC1(Nc2ccc(C)cc2)Oc2ccccc2O1,> 42 µM (inactive)
24,CN(CC(=O)Nc1cccc(F)c1)CC(=O)Nc1cccc(S(N)(=O)=O)c1,> 110 µM (inactive)
25,O=S(=O)(NCc1ccccc1)c1ccc(S(=O)(=O)N(Cc2ccccn2)Cc2ccco2)cc1,> 42 µM (inactive)

row,Structure (SMILES),AC50
1,O=C1CCCN1CCC1CCN(C2CC(=O)N(c3ccc(Cl)cc3)C2=O)CC1 (centres undefined),10.1 µM
2,CC(=O)c1ccc(Nc2cc(C)nc3ccccc23)cc1,> 42 µM (inactive)
3,O=C(c1ccccc1)C(CN1CCCC1)c1ccccc1 (centres undefined),4.34 µM
4,CCCOc1ccccc1C1NC(=O)NC(C)=C1C(=O)OCc1ccccc1 (centres undefined),> 42 µM (inactive)
5,CN(C)S(=O)(=O)c1ccc(C(=O)/C=C/c2cccnc2)cc1,> 42 µM (inactive)
6,CC(=O)c1cccc(NC(=O)CNC(=O)c2sc3ccccc3c2Cl)c1,> 42 µM (inactive)
7,COCC(C)n1c(-c2ccc3c(c2)NC(=O)CO3)csc1=Nc1ccc(OC(F)F)cc1 (centres undefined),25.2 µM
8,CCOC(=O)N1CCN(c2cc3[nH]c(=S)[nH]c3cc2F)CC1,> 42 µM (inactive)
9,O=C(COC(=O)c1cc([N+](=O)[O-])ccc1N1CCOCC1)Nc1cccc(F)c1,> 42 µM (inactive)
10,Cc1nc(CCNC(=O)c2ccccc2)cs1,> 42 µM (inactive)
11,O=C(CCCC(=O)N/N=C/c1ccccc1C(=O)O)N/N=C/c1ccccc1C(=O)O,> 42 µM (inactive)
12,CC1=CC(=O)C(C(C)C)=C/C1=N/OS(=O)(=O)c1ccccc1,0.92 µM
13,O=C(c1cccnc1)N1CCCC(Nc2ccc(F)cc2)C1 (centres undefined),> 42 µM (inactive)
14,O=C(c1ccc(COc2ccccc2Cl)o1)N1N=C(C(F)F)CC1(O)C(F)F (centres undefined),> 42 µM (inactive)
15,CC(C)(C)C(=O)NC1(C(F)(F)F)NC(=O)N(c2ccccc2F)C1=O (centres undefined),> 42 µM (inactive)
16,O=C(NC1CCCCC1)C(c1ccncc1)N(Cc1ccc2c(c1)OCO2)C(=O)C(F)(F)F (centres undefined),> 42 µM (inactive)
17,N#Cc1cc2c(nc1SC1CCCCC1O)CCCC2 (centres undefined),> 42 µM (inactive)
18,COc1ccc(/C=C2/SC(=O)N(NS(=O)(=O)c3ccccc3)C2=S)cc1OC,> 42 µM (inactive)
19,CCOC(=O)CSc1cc(C)nc2ccc(OC)cc12,> 42 µM (inactive)
20,O=C(CSc1nnc(NC(=O)CN2CCOCC2)s1)Nc1ccccc1,> 42 µM (inactive)
21,Cc1ccc(C(C(=O)NC2CCCCC2)N(CCC(C)C)C(=O)CNC(=O)c2ccco2)o1 (centres undefined),> 42 µM (inactive)
22,CCc1ccc(NC(=O)N2CCC(c3ccccc3)C2)cc1 (centres undefined),> 42 µM (inactive)
23,CC(Oc1ccccc1)C(=O)Nc1ccccc1O (centres undefined),> 42 µM (inactive)
24,COc1cc2ccccc2cc1C(=O)Nc1ccc(CN2CCOCC2)cc1,> 42 µM (inactive)
25,Cc1c(NC(=O)C(C)Sc2nnc(-c3ccccc3)o2)c(=O)n(-c2ccccc2)n1C (centres undefined),> 42 µM (inactive)

row,Structure (SMILES),AC50
1,CCN(CC)c1nc2c(c(=O)[nH]c(=O)n2C)n1CCOc1ccccc1,> 42 µM (inactive)
2,COc1ccc(C(=O)NC(=S)Nc2ccc(CN3CCCCC3)cc2)cc1Cl,> 42 µM (inactive)
3,Cc1nc2ccc(NC(=O)c3ccc(S(=O)(=O)N4CCOCC4)cc3)cc2s1,> 42 µM (inactive)
4,CCC(NC(=O)c1ccccc1NC(=O)c1ccco1)C(=O)NC1CCCCC1 (centres undefined),> 42 µM (inactive)
5,COc1ccccc1NC(=S)N(Cc1ccco1)Cc1cc2cccc(C)c2[nH]c1=O,> 42 µM (inactive)
6,Cc1c(Cl)cccc1NC(=O)Cn1c(CCC(=O)O)ccc1-c1ccccc1,> 42 µM (inactive)
7,C=C(C)Cc1c(C)c(C#N)c2[nH]c3ccccc3n2c1=O,> 42 µM (inactive)
8,COc1ccc(/C=N/NC(=O)c2nnn(-c3nonc3N)c2-c2cccs2)cc1OC,> 42 µM (inactive)
9,COc1ccc(S(=O)(=O)n2nc(-c3ccc(Cl)cc3)cc2N)cc1OC,> 42 µM (inactive)
10,CCCC(O)(CCC)C(=O)NNc1ccc(C)cc1,> 42 µM (inactive)
11,Cc1cc(C)c2c(=O)[nH]cnc2n1,> 42 µM (inactive)
12,CCOC(=O)c1cccc(NC(=O)C2CCCN(S(=O)(=O)c3c(C)n[nH]c3C)C2)c1 (centres undefined),> 42 µM (inactive)
13,CC(=O)Cc1nsc(Nc2cccc(C)c2)n1,> 42 µM (inactive)
14,COc1cccc(NC(=O)Nc2cc(C(=O)NC(C)C)ccc2N2CC3CC(C2)c2cccc(=O)n2C3)c1 (centres undefined),> 42 µM (inactive)
15,COc1cc(NC(=O)c2cc(Cl)ccc2Cl)ccc1-c1cc2ccccc2oc1=O,> 42 µM (inactive)
16,Cc1onc(-c2ccccc2)c1C(=O)N/N=C/C=C/c1ccccc1,> 42 µM (inactive)
17,Nc1ccc(N2CCN(c3ccc(F)cc3)CC2)cc1,> 42 µM (inactive)
18,CC(C)C(OC(=O)CN1C(=O)COc2ccccc21)C(=O)NC1CCCC1 (centres undefined),> 42 µM (inactive)
19,[N-]=[N+]=NCCN1CCC(O)CCC1=O (centres undefined),> 42 µM (inactive)
20,Cc1ccc2c(c1)N(CC(=O)NCCCN1CCN(C)CC1)C(=O)CO2,> 42 µM (inactive)
21,Cc1cc(C(F)(F)F)nc(SCC(=O)Nc2cc(C)on2)n1,> 42 µM (inactive)
22,O=C(COC(=O)c1c(F)cccc1F)c1ccc[nH]1,> 42 µM (inactive)
23,CC1(C)Cc2nc3sc4c(OCc5ccccc5)ncnc4c3cc2CO1,> 42 µM (inactive)
24,Cc1ccc2nc(/C(C#N)=C\c3cc(O)ccc3[N+](=O)[O-])[nH]c2c1,> 42 µM (inactive)
